Values of other authors, collected in patent US20240315993A1, “ANTIPARASITIC COMPOUNDS” (Intervet Inc., priority 2021, published 2024).

What was measured:
[1] = test system: Beet Armyworm (Spodoptera exigua); conditions: Beet Armyworm second instar larvae, 128-well diet tray, 50 μg/cm^2, five to seven days, average of eight wells; cited from earlier work
[2] = test system: Cabbage Looper (Trichoplusia ni); conditions: Cabbage Looper second instar larvae, 128-well diet tray, 50 μg/cm^2, five to seven days, average of eight wells; cited from earlier work
[3] = test system: Yellow Fever Mosquito (Aedes aegypti); conditions: Aedes aegypti larvae about 1 day old, 96-well plate, scored after 3 days; cited from earlier work

SMILES | Test A: Bioassay on BAW, percent mortality rating [1] | Test B: Bioassay on CL, percent mortality rating [2] | Test C: Bioassay on Yellow Fever Mosquito, mortality rating [3]
O=C(Nc1ccc2c(c1)C(=O)NC2=O)c1cc(NC(=O)C2C(c3cc(Cl)cc(Cl)c3)C2(Cl)Cl)ccc1Cl (stereo not drawn) [c55] | A (50-100) | A (50-100) | D (No activity noticed in this bioassay)
N#Cc1cc(N)ccc1NC(=O)c1cc(NC(=O)C2C(c3cc(Cl)cc(Cl)c3)C2(Cl)Cl)ccc1Cl (stereo not drawn) [c56] | A (50-100) | A (50-100) | A (80-100)
CC(=O)N(C(C)=O)c1ccc(NC(=O)c2cc(NC(=O)C3C(c4cc(Cl)cc(Cl)c4)C3(Cl)Cl)ccc2Cl)c(C#N)c1 (stereo not drawn) [c57] | A (50-100) | A (50-100) | A (80-100)
CNc1ccc(NC(=O)c2cc(NC(=O)C3C(c4cc(Cl)cc(Cl)c4)C3(Cl)Cl)ccc2Cl)c(C#N)c1 (stereo not drawn) [c58] | A (50-100) | A (50-100) | A (80-100)
Cc1cc(N)ccc1NC(=O)c1cc(NC(=O)C2C(c3cc(Cl)cc(Cl)c3)C2(Cl)Cl)ccc1Cl (stereo not drawn) [c59] | A (50-100) | A (50-100) | A (80-100)
O=C1Cc2cc(NC(=O)c3cc(NC(=O)C4C(c5cc(Cl)cc(Cl)c5)C4(Cl)Cl)ccc3Cl)ccc2N1 (stereo not drawn) [c60] | A (50-100) | A (50-100) | A (80-100)
O=C(Nc1cc2cc[nH]c2cn1)c1cc(NC(=O)C2C(c3cc(Cl)cc(Cl)c3)C2(Cl)Cl)ccc1Cl (stereo not drawn) [c61] | A (50-100) | A (50-100) | A (80-100)
O=C(Nc1ccc2nccn2c1)c1cc(NC(=O)C2C(c3cc(Cl)cc(Cl)c3)C2(Cl)Cl)ccc1Cl (stereo not drawn) [c62] | A (50-100) | A (50-100) | A (80-100)
Cn1ncc2cc(NC(=O)c3cc(NC(=O)C4C(c5cc(Cl)cc(Cl)c5)C4(Cl)Cl)ccc3Cl)cnc21 (stereo not drawn) [c63] | A (50-100) | A (50-100) | A (80-100)
Cc1ccc2c(NC(=O)c3cc(NC(=O)C4C(c5cc(Cl)cc(Cl)c5)C4(Cl)Cl)ccc3Cl)n[nH]c2c1 (stereo not drawn) [c64] | A (50-100) | A (50-100) | A (80-100)
Cc1cc(N2C(=O)C=CC2=O)ccc1NC(=O)c1cc(NC(=O)C2C(c3cc(Cl)cc(Cl)c3)C2(Cl)Cl)ccc1Cl (stereo not drawn) [c65] | A (50-100) | A (50-100) | A (80-100)
O=C(Nc1cnc2[nH]ccc2c1)c1cc(NC(=O)C2C(c3cc(Cl)cc(Cl)c3)C2(Cl)Cl)ccc1Cl (stereo not drawn) [c66] | A (50-100) | A (50-100) | A (80-100)
CCOC(=O)c1cc2cc(NC(=O)c3cc(NC(=O)C4C(c5cc(Cl)cc(Cl)c5)C4(Cl)Cl)ccc3Cl)ccc2[nH]1 (stereo not drawn) [c67] | A (50-100) | A (50-100) | A (80-100)
CC(C)(C)OC(=O)n1ccc2cc(NC(=O)c3cc(NC(=O)C4C(c5cc(Cl)cc(Cl)c5)C4(Cl)Cl)ccc3Cl)ccc21 (stereo not drawn) [c68] | A (50-100) | A (50-100) | D (No activity noticed in this bioassay)
Cc1c(NC(=O)c2cc(NC(=O)C3C(c4cc(Cl)cc(Cl)c4)C3(Cl)Cl)ccc2Cl)ccc2[nH]ccc12 (stereo not drawn) [c69] | A (50-100) | A (50-100) | A (80-100)
CC(C)(C)c1cc2cc(NC(=O)c3cc(NC(=O)C4C(c5cc(Cl)cc(Cl)c5)C4(Cl)Cl)ccc3Cl)ccc2[nH]1 (stereo not drawn) [c70] | A (50-100) | A (50-100) | A (80-100)
COC(=O)C(O)(c1ccc(NC(=O)c2cc(NC(=O)C3C(c4cc(Cl)cc(Cl)c4)C3(Cl)Cl)ccc2Cl)c(C)c1)C(F)(F)F (stereo not drawn) [c71] | A (50-100) | A (50-100) | A (80-100)
C=C(c1ccc(NC(=O)c2cc(NC(=O)C3C(c4cc(Cl)cc(Cl)c4)C3(Cl)Cl)ccc2Cl)c(C)c1)C(F)(F)F (stereo not drawn) [c72] | A (50-100) | A (50-100) | B (More than 0 - Less than 80)

SMILES | Test A: Bioassay on BAW, percent mortality rating [1] | Test B: Bioassay on CL, percent mortality rating [2] | Test C: Bioassay on Yellow Fever Mosquito, mortality rating [3]
CCn1ccc2cc(NC(=O)c3cc(NC(=O)C4C(c5cc(Cl)cc(Cl)c5)C4(Cl)Cl)ccc3Cl)ccc21 (stereo not drawn) [c73] | A (50-100) | A (50-100) | A (80-100)
Cc1cc(NC(=O)OC(C)(C)C)ccc1NC(=O)c1cccc(NC(=O)C2C(c3cc(Cl)c(Cl)c(Cl)c3)C2(Cl)Cl)c1 (stereo not drawn) [c74] | A (50-100) | A (50-100) | B (More than 0 - Less than 80)
Cc1cc(NC(=O)OC(C)(C)C)ccc1NC(=O)c1cccc(NC(=O)C2C(c3cc(Cl)cc(Cl)c3)C2(Cl)Cl)c1 (stereo not drawn) [c75] | A (50-100) | A (50-100) | B (More than 0 - Less than 80)
Cc1cc(N)ccc1NC(=O)c1cccc(NC(=O)C2C(c3cc(Cl)c(Cl)c(Cl)c3)C2(Cl)Cl)c1 (stereo not drawn) [c76] | A (50-100) | A (50-100) | A (80-100)
Cc1cc(N)ccc1NC(=O)c1cccc(NC(=O)C2C(c3ccc(Cl)c(Cl)c3)C2(Cl)Cl)c1 (stereo not drawn) [c77] | A (50-100) | A (50-100) | A (80-100)
Cc1cc(N)ccc1NC(=O)c1cccc(NC(=O)C2C(c3cc(Cl)cc(Cl)c3)C2(Cl)Cl)c1 (stereo not drawn) [c78] | A (50-100) | A (50-100) | A (80-100)
O=C(Nc1ccccc1)c1cc(NC(=O)C2C(c3cc(Cl)cc(Cl)c3)C2(Cl)Cl)cc(Cl)c1Cl (stereo not drawn) [c79] | A (50-100) | A (50-100) | A (80-100)
CNc1ccc(NC(=O)c2cc(NC(=O)C3C(c4cc(Cl)cc(Cl)c4)C3(Cl)Cl)cc(Cl)c2Cl)cc1 (stereo not drawn) [c80] | A (50-100) | A (50-100) | A (80-100)
Cc1cc(NC(=O)OC(C)(C)C)ccc1NC(=O)c1cc(NC(=O)C2C(c3cc(Cl)cc(Cl)c3)C2(Cl)Cl)ccc1Cl (stereo not drawn) [c81] | A (50-100) | A (50-100) | A (80-100)
Cc1cc(N)ccc1NC(=O)c1cc(NC(=O)C2C(c3cc(Cl)c(Cl)c(Cl)c3)C2(Cl)Cl)ccc1Cl (stereo not drawn) [c84] | A (50-100) | A (50-100) | A (80-100)
N#Cc1ccc(NC(=O)c2cc(NC(=O)C3C(c4cc(Cl)cc(Cl)c4)C3(Cl)Cl)ccc2Cl)c(C#N)c1 (stereo not drawn) [c85] | A (50-100) | A (50-100) | A (80-100)
CN1C(=O)CCc2cc(NC(=O)c3cc(NC(=O)C4C(c5cc(Cl)cc(Cl)c5)C4(Cl)Cl)ccc3Cl)ccc21 (stereo not drawn) [c86] | A (50-100) | A (50-100) | A (80-100)
CN1CCCc2cc(NC(=O)c3cc(NC(=O)C4C(c5cc(Cl)cc(Cl)c5)C4(Cl)Cl)ccc3Cl)ccc21 (stereo not drawn) [c87] | A (50-100) | A (50-100) | A (80-100)
O=C(Nc1ccc2c(c1)CCCN2)c1cc(NC(=O)C2C(c3cc(Cl)cc(Cl)c3)C2(Cl)Cl)ccc1Cl (stereo not drawn) [c88] | A (50-100) | A (50-100) | A (80-100)
Cc1cc(N)ccc1NC(=O)c1cc(NC(=O)C2C(c3ccc(F)c(Cl)c3)C2(Cl)Cl)ccc1Cl (stereo not drawn) [c89] | A (50-100) | A (50-100) | A (80-100)
CC(=O)Nc1cccc(NC(=O)c2cc(NC(=O)C3C(c4cc(Cl)cc(Cl)c4)C3(Cl)Cl)ccc2Cl)n1 (stereo not drawn) [c90] | A (50-100) | A (50-100) | A (80-100)
N#Cc1ccc(NC(=O)c2cc(NC(=O)C3C(c4cc(Cl)cc(Cl)c4)C3(Cl)Cl)ccc2Cl)nc1N (stereo not drawn) [c91] | A (50-100) | A (50-100) | D (No activity noticed in this bioassay)
